Each structure is given as a SMILES string.

In the assay the target is T1, DC-SIGN (Homo sapiens, UniProt Q9NNX6).
T1 construct: gene CD209; DC-SIGN-Fc: extracellular domain fused to the Fc portion of human IgG1
T1 sequence (Q9NNX6 59-404 limits assumed): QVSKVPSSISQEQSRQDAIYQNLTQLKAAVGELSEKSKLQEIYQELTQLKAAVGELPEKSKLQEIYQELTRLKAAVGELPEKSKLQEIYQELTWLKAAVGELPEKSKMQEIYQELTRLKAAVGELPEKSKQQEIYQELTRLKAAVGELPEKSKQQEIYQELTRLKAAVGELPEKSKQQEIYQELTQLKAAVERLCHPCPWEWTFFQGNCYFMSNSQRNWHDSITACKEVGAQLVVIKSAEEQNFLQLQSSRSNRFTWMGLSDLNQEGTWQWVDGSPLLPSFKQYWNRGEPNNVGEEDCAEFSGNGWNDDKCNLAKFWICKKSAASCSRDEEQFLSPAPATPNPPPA
The experiment in a line: Solid-phase competition ELISA of DC-SIGN-Fc against PAA-fucose and PAA-Le^b; also Le^b bead competition on DC-SIGN expressing cells ([…]). It counts as binding.

In the case of `C[C@@H]1O[C@@H](O[C@H]2[C@H](O[C@H]3[C@H](O)[C@@H](O)C(O)O[C@@H]3CO)O[C@H](CO)[C@H](O)[C@@H]2O)[C@@H](O)[C@H](O)[C@@H]1O` (stereo partly shown) [2′-FL, 2′-Fucosyllactose], the “Solid-phase competition ELISA of DC-SIGN-Fc against PAA-fucose and PAA-Le^b; als” value was ~ 2 mM.

Values taken from publication PMC9737664, “Human Milk Oligosaccharide 2′-Fucosyllactose Inhibits Ligand Binding to C-Type Lectin DC-SIGN but Not to Langerin” (International Journal of Molecular Sciences, 2022).
